Source: ChEMBL document CHEMBL5226325, “Optimization of a Screening Hit toward M2912, an Oral Tankyrase Inhibitor with Antitumor Activity in Colorectal Cancer Models” (J Med Chem, 2021)
pEC50, pIC50: −log10 of the molar value. Activity calls are given as the source filed them. The rule behind the calls is not given here.

How the values were obtained:
[1] = Unbound fraction in rat plasma; assay type: ADME, cell-free
DLD-1 = test: Cytotoxicity against human DLD-1 cells assessed as reduction in cell growth at 0.01 to 10 uM incubated for 14 days by resazurin dye based assay; assay type: functional; details: dose 0.01-10 µM, time 14.0 day
[2] = Half life in human; assay type: ADME
[3] = Toxicity in […] xenografted with human HT55 cells assessed as reduction in body weight at 20 mg/kg, po administered twice daily via gavage for 20 days and measured twice weekly; assay type: organism-based; details: in vivo, 480 h, time 20 day
[4] = target: Protein mono-ADP-ribosyltransferase PARP8 (Homo sapiens, UniProt Q8N3A8); test: Inhibition of human PARP8 by chemiluminescence assay
Sequence of Protein mono-ADP-ribosyltransferase PARP8 (Q8N3A8 whole entry): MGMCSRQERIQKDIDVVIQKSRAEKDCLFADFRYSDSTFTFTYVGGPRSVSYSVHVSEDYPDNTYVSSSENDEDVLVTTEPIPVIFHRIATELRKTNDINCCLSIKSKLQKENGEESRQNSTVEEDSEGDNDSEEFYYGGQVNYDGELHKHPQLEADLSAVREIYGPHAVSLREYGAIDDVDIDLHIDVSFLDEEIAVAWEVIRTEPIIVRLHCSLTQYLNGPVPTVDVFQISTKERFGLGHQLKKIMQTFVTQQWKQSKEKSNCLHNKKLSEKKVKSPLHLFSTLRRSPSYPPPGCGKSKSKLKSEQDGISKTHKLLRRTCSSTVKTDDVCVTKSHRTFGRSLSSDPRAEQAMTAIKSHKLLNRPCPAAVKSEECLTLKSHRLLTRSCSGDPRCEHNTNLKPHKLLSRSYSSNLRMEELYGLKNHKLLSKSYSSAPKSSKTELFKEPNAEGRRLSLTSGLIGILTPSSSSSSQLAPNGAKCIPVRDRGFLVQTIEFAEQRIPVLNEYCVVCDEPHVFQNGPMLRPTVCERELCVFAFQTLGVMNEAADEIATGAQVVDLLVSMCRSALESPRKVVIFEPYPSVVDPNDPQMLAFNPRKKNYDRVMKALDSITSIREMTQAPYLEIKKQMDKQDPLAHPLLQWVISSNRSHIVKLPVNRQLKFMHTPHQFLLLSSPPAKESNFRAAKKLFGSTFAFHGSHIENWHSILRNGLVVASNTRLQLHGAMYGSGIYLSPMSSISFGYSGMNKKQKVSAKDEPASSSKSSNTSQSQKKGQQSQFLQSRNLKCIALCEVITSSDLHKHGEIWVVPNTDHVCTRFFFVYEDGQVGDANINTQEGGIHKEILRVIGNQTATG

[5] = Half life in dog; assay type: ADME, Canis lupus familiaris; details: in vivo
[6] = target: Protein mono-ADP-ribosyltransferase PARP15 (Homo sapiens, UniProt Q460N3); test: Inhibition of N-terminal GST-tagged human recombinant PARP15 (221 to 444 residues) expressed in Escherichia coli by chemiluminescence assay
Sequence of Protein mono-ADP-ribosyltransferase PARP15 (Q460N3 whole entry, looked up, the tested form may be a part): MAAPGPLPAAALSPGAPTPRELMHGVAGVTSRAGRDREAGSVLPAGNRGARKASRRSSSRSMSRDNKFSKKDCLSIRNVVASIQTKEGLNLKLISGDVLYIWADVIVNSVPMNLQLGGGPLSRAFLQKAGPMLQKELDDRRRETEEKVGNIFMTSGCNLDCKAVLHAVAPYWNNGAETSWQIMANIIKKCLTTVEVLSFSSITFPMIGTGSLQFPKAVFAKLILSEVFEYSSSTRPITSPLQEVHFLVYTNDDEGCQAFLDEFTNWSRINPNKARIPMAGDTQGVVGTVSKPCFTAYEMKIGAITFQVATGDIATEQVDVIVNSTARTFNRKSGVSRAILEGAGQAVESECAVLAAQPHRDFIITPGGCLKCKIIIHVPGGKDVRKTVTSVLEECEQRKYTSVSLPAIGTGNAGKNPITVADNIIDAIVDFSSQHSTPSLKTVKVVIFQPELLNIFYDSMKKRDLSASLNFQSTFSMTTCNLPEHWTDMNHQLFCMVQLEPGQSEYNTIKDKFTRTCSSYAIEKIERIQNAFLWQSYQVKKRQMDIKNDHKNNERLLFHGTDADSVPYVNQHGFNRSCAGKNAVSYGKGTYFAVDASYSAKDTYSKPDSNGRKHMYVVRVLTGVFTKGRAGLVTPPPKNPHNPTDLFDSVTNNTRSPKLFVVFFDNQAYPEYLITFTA

[7] = target: Protein mono-ADP-ribosyltransferase PARP3 (Homo sapiens, UniProt Q9Y6F1); test: Inhibition of N-terminal GST-fused human recombinant PARP3 (2 to 540 residues) expressed in Sf9 insect cells by chemiluminescence assay
Sequence of Protein mono-ADP-ribosyltransferase PARP3 (Q9Y6F1 whole entry, the tested form may be a part): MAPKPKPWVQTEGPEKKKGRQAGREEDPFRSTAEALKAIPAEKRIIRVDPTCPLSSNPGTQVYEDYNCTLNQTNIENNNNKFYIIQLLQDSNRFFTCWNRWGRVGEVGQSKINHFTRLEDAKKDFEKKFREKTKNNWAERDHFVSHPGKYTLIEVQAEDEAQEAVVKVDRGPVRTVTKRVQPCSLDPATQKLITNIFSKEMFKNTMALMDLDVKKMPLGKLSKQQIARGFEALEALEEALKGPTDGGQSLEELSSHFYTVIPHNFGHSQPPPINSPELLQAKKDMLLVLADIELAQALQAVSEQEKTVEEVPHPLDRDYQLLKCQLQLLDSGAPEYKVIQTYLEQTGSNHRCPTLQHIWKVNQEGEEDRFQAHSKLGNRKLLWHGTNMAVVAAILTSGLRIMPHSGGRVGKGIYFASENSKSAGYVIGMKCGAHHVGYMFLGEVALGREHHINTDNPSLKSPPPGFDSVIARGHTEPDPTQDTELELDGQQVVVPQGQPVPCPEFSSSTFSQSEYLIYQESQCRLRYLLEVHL

[8] = In vivo inhibition of Wnt pathway in Hsd athymic nude mouse xenografted with human DLD1 cells assessed as increase in axin2 protein level in tumor at 10 to 30 mg/kg, po administered as single dose and measured after 18 hrs; assay type: functional, organism-based; details: DLD-1, dose 10-30 mg/kg
[9] = target: T1, Poly [ADP-ribose] polymerase tankyrase-2 (Homo sapiens, UniProt Q9H2K2); test: Inhibition of TNKS2 (unknown origin)
T1 sequence (Q9H2K2 whole entry): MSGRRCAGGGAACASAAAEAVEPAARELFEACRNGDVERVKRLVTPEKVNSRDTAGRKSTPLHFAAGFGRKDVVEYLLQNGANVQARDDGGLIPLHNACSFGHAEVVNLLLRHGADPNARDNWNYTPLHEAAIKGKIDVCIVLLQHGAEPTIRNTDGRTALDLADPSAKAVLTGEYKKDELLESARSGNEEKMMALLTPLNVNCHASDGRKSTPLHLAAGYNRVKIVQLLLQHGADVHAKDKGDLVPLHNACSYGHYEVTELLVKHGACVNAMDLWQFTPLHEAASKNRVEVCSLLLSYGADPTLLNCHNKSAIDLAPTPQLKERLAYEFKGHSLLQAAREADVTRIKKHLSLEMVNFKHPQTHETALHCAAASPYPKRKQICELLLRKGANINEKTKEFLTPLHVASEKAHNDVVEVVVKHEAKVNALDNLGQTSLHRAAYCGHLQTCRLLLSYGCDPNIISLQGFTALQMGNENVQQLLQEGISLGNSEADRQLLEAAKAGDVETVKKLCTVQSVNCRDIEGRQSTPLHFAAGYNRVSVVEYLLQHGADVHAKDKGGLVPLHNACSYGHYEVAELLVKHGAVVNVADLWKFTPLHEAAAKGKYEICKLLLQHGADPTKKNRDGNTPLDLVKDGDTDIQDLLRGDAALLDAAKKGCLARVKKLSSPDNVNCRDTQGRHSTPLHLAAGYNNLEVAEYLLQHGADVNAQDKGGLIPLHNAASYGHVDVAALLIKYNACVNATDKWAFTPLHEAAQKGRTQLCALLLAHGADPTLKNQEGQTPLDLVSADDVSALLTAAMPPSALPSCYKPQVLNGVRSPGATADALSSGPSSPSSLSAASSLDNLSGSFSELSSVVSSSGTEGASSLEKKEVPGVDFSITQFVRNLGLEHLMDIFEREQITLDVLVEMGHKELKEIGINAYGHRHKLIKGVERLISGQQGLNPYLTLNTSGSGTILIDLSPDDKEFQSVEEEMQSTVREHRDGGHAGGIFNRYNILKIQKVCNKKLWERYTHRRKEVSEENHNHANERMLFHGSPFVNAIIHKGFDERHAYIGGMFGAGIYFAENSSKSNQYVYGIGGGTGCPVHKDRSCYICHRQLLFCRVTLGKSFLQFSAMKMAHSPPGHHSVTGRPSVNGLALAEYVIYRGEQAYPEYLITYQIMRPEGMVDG

[10] = target: Protein mono-ADP-ribosyltransferase TIPARP (Homo sapiens, UniProt Q7Z3E1); test: Inhibition of N-terminal FLAG-tagged human recombinant PARP7 (400 to 657 residues) expressed in Sf9 insect cells by chemiluminescence assay
Sequence of Protein mono-ADP-ribosyltransferase TIPARP (Q7Z3E1 whole entry, the tested form may be a part): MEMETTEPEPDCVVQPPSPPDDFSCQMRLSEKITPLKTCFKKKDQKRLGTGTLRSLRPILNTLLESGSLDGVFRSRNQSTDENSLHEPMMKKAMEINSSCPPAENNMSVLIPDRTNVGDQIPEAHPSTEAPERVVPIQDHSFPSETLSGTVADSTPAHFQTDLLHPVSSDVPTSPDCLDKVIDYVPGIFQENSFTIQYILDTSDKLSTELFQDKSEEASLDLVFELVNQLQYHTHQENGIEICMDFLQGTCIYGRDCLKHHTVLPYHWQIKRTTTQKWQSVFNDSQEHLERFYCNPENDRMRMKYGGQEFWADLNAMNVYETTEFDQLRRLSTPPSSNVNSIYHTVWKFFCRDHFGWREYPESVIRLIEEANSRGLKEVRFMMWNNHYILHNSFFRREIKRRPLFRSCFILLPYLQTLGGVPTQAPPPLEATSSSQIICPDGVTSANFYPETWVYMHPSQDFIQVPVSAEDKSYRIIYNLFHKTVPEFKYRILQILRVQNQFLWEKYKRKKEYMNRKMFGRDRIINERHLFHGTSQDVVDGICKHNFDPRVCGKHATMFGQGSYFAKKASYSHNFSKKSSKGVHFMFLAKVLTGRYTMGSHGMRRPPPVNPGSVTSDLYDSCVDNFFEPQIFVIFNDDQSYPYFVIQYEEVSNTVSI

[11] = Hepatic blood flow in monkey; assay type: ADME, Macaca mulatta; details: rhesus monkey
CYP450 = CYP450 (Homo sapiens, UniProt P04798+P05177+P05181+P08684+P10632+P10635+P11509+P11712+P13584+P20813+P20815+P20853+P24462+P24903+P33260+P33261+P51589+P78329+P98187+Q02928+Q08477+Q16678+Q16696+Q5TCH4+Q6VVX0+Q7Z449+Q8TAV3+Q96SQ9+Q9HB55); test: Inhibition of CYP450 (unknown origin); assay type: ADME, protein assay
COLO 320 = test: Cytotoxicity against human COLO 320 cells assessed as reduction in cell growth incubated for 14 days by resazurin dye based assay; assay type: functional; details: time 14.0 day
[12] = Oral bioavailability in mouse; assay type: ADME, organism-based; details: in vivo
[13] = Oral bioavailability in monkey; assay type: ADME, organism-based, Macaca mulatta; details: rhesus monkey, in vivo
[14] = Volume of distribution at steady state in monkey; assay type: ADME, Macaca mulatta; details: rhesus monkey, in vivo; read-out: Vdss
[15] = Hepatic blood flow in dog; assay type: ADME, Canis lupus familiaris
Adenosine receptor A3 = Adenosine receptor A3 (Homo sapiens, UniProt P0DMS8); test: Inhibition of A3 adenosine receptor (unknown origin); assay type: toxicity
Sequence of Adenosine receptor A3 (P0DMS8 whole entry): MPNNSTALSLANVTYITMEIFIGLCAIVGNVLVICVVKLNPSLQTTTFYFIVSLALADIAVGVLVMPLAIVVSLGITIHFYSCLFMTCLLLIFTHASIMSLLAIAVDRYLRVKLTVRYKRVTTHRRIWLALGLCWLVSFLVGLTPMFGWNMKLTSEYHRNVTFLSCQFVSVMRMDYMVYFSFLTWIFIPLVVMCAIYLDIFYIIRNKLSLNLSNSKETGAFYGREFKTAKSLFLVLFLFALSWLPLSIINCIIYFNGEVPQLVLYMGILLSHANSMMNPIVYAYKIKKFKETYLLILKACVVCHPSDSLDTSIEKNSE

[16] = Unbound fraction in mouse plasma; assay type: ADME, cell-free
[17] = In vivo inhibition of Wnt pathway in Hsd athymic nude mouse xenografted with human DLD1 cells assessed as increase in tankyrase protein level in tumor at 10 to 30 mg/kg, po administered as single dose and measured after 18 hrs; assay type: functional, organism-based; details: DLD-1, dose 10-30 mg/kg
[18] = Toxicity in CB17-SCID mouse xenografted with human COLO 320 cells assessed as reduction in body weight at 20 mg/kg, po administered twice daily via gavage for 20 days and measured twice weekly; assay type: organism-based; details: in vivo, 480 h, time 20 day
[19] = In vivo inhibition of Wnt pathway in Hsd athymic nude mouse xenografted with human DLD1 cells assessed as increase in axin2 protein level in tumor at 10 to 30 mg/kg, po administered as single dose and measured after 2 to 8 hrs; assay type: functional, organism-based; details: DLD-1, dose 10-30 mg/kg, time 2-8 hrs
[20] = Modulation of Wnt/beta-catenin signaling pathway in human DLD-1 cells assessed as induction of AXIN2 accumulation incubated for 24 hrs by ELISA; assay type: cell-based; details: DLD-1, 24 h
[21] = target: Poly [ADP-ribose] polymerase tankyrase-1 (Homo sapiens) (UniProt O95271); test: Inhibition of tankyrase-mediated auto-PARsylation in human DLD-1 cells assessed as increase in tankyrase accumulation incubated for 24 hrs; assay type: cell-based
Sequence of Poly [ADP-ribose] polymerase tankyrase-1 (Homo sapiens) (O95271 whole entry): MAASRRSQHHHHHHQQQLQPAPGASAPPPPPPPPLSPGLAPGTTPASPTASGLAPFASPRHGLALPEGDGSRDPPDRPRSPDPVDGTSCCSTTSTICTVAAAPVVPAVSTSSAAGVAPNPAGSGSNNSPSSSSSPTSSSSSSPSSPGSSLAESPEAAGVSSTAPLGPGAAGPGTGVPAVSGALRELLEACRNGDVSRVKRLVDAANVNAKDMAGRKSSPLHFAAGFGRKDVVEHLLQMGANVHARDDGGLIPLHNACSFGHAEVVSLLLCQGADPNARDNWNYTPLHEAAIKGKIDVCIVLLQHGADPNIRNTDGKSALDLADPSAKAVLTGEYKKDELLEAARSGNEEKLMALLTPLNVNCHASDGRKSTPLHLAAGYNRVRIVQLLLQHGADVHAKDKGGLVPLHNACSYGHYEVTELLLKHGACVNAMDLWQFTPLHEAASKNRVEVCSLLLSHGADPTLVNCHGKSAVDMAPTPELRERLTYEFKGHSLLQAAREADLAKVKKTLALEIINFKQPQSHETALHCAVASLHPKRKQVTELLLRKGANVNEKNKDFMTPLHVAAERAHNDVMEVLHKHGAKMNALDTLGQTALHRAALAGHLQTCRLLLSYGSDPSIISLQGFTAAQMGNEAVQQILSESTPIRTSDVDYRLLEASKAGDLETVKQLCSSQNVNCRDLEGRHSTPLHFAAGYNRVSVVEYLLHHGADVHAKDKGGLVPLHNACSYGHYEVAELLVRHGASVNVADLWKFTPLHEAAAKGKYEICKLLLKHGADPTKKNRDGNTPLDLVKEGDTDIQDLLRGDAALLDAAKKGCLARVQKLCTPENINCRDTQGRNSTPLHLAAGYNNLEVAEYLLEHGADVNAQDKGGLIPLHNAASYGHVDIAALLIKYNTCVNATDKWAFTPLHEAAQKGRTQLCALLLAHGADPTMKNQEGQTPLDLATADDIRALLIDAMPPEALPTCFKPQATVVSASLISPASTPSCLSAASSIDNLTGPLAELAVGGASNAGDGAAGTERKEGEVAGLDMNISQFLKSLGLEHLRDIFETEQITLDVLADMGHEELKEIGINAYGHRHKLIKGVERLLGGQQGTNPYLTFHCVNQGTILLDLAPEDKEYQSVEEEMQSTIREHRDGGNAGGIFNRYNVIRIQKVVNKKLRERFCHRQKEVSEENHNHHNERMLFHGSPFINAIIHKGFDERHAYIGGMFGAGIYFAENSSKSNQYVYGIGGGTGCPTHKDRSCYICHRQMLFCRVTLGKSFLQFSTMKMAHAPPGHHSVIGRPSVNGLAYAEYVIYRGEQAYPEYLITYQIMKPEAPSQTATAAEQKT

[22] = Hepatic blood flow in human; assay type: ADME

fraction unbound [1]: 0.13
half-life [2]: 6.9 h
pIC50 [4]: 5.89
half-life [5]: 0.593 h
pIC50 [6]: < 5.00
pIC50 [7]: 6.96
pIC50 [9]: 8.85
pIC50 [10]: 6.48
QH [11]: 99%
pIC50 (CYP450): < 4.30
bioavailability [12]: 77%
bioavailability [13]: 6.7%
Vd [14]: 3.15 L/kg
QH [15]: 130%
fraction unbound [16]: 0.16
pEC50 [20]: 7.80
inhibition [21]: Active
QH [22]: 17%
Structure (SMILES): Cc1ccc2c(=O)[nH]c(-c3ccc(C(C)(C)O)cc3)cn12
Activity (DLD-1): inactive
Activity [3]: Non-Toxic
inhibition [8]: inactive
Activity (COLO 320): Dose-Dependent Effect
pIC50 (Adenosine receptor A3): 5.00
inhibition [17]: inactive
Activity [18]: Non-Toxic
inhibition [19]: Active
